# According to ChEMBL document CHEMBL3817791, “Discovery of 4-(4-aminopyrazolo[1,5-a][1,3,5]triazin-8-yl)benzamides as novel, highly potent and selective, orally bioavailable inhibitors of Tyrosine Threonine Kinase, TTK” (Bioorg Med Chem Lett, 2016):
# T1: Dual specificity protein kinase TTK (Homo sapiens, UniProt P33981)
# T1 sequence (P33981 whole entry): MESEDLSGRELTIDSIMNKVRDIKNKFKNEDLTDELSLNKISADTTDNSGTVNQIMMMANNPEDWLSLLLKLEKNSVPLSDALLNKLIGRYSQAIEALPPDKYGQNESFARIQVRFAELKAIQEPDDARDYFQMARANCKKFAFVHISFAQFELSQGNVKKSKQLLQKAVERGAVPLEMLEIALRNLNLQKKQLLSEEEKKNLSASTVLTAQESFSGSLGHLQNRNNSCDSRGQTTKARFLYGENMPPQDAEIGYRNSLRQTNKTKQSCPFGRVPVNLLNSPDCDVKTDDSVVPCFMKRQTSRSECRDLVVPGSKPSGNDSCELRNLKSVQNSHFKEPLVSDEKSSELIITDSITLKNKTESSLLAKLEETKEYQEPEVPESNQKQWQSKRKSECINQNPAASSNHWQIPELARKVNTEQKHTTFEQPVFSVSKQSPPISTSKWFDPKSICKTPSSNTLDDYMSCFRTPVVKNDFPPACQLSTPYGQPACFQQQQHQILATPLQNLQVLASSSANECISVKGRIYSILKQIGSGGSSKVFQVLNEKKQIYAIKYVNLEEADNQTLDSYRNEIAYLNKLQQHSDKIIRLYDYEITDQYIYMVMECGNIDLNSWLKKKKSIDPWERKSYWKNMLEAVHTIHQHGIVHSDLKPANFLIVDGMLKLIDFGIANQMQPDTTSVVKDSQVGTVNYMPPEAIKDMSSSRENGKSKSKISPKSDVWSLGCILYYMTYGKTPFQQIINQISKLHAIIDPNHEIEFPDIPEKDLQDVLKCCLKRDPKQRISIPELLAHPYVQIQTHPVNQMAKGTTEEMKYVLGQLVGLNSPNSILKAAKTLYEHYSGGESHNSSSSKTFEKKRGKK
# What was measured:
# [1] = Antiproliferative activity against human HCT116 cells; assay type: functional; conditions: HCT-116
# [2] = molecular target: T1, Dual specificity protein kinase TTK; test: Inhibition of TTK (unknown origin)
# [3] = system: MDA-MB-231; test: Antiproliferative activity against human MDA-MB-231 cells; assay type: functional
# [4] = Antiproliferative activity against human OVCAR3 cells; assay type: functional; conditions: OVCAR-3
# [5] = molecular target: Rho-associated protein kinase 2 (Homo sapiens) (UniProt O75116); test: Inhibition of recombinant human N-terminal His6-tagged ROCK2 (11 to 552 residues) expressed in baculovirus infected Sf21 cells at 1 uM by radiometric assay relative to control
# Chain of Rho-associated protein kinase 2 (Homo sapiens) (O75116 whole entry, looked up, the tested form may be a part): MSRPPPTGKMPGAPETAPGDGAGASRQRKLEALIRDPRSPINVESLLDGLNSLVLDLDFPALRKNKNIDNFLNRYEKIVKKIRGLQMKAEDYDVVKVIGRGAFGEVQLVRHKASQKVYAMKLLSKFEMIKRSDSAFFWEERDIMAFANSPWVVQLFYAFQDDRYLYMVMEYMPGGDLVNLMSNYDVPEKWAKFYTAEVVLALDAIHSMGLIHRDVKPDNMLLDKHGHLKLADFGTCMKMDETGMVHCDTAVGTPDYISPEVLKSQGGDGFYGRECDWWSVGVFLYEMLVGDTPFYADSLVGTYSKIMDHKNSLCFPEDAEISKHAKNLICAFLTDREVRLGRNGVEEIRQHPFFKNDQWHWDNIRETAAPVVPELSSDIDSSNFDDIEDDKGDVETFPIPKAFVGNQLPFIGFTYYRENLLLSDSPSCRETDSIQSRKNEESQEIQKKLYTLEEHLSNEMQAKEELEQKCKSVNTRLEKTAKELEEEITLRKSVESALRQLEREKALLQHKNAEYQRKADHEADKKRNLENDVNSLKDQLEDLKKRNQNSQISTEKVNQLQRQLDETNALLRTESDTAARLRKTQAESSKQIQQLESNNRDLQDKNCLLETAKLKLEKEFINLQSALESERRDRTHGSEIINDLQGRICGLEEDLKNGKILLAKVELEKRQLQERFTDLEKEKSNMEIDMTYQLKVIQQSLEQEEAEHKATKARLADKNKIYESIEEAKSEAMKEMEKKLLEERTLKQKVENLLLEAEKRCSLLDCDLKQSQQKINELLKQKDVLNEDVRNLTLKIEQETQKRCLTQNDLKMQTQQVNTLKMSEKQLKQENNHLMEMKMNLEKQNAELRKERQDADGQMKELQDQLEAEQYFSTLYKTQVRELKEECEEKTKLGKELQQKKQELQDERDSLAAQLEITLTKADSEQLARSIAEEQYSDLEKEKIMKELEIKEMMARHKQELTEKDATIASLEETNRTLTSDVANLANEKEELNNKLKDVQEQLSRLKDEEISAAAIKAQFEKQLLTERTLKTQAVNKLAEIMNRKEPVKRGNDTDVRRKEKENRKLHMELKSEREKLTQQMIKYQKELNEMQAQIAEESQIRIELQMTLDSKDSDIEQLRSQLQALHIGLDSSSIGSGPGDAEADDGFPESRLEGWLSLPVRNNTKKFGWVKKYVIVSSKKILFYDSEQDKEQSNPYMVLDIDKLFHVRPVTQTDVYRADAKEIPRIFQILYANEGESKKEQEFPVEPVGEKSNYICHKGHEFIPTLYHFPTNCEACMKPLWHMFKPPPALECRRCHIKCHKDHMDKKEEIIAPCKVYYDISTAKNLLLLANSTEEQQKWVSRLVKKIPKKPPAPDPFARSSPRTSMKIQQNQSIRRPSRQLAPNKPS
# [6] = Antiproliferative activity against human PA1 cells; assay type: functional; conditions: PA-1
# [7] = system: MDA-MB-468; test: Antiproliferative activity against human MDA-MB-468 cells; assay type: functional
# [8] = system: HT-29; test: Antiproliferative activity against human HT-29 cells; assay type: functional
# [9] = Cmax in mouse at 10 mg/kg, po; assay type: ADME, organism-based; design: dose 10 mg/kg, route oral; conditions: in vivo
# [10] = Half life in mouse microsomes; assay type: ADME, Microsome
# [11] = Half life in human microsomes; assay type: ADME, Microsome
# [12] = Half life in rat microsomes; assay type: ADME, Microsome
# [13] = molecular target: Cytochrome P450 3A4 (Homo sapiens, UniProt P08684); test: Inhibition of CYP3A4 (unknown origin); assay type: ADME
# Chain of Cytochrome P450 3A4 (P08684 whole entry): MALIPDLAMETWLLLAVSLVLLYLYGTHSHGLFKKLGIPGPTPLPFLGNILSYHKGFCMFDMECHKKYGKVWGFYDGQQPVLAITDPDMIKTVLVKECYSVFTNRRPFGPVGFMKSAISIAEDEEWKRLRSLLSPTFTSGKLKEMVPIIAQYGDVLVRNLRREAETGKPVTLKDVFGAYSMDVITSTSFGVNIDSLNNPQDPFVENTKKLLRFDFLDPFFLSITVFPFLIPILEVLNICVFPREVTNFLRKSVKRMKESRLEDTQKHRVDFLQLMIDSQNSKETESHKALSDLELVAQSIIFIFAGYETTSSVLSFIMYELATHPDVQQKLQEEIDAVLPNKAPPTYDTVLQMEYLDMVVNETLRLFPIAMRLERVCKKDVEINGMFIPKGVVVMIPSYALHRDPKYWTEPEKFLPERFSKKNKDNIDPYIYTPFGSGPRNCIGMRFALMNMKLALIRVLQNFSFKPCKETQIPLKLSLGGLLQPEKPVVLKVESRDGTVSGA
# [14] = AUC in mouse at 10 mg/kg, po; assay type: ADME, organism-based; conditions: in vivo
# [15] = substrate: Cc1cc(-c2cnn3c(NCC4CCOCC4)nc(Oc4ccccc4)nc23)ccc1C(=O)NC1CC1; conditions: Homo sapiens
# Description: Inhibition of TTK (unknown origin) assessed as substrate Km(app) at 7.5 nM by double reciprocal plot analysis (Rvb = 8.4 uM)
# [16] = substrate: Cc1cc(-c2cnn3c(NCC4CCOCC4)nc(Oc4ccccc4)nc23)ccc1C(=O)NC1CC1; conditions: Homo sapiens; remark: listed apart in the source
# Description: Inhibition of TTK (unknown origin) assessed as substrate Km(app) at 4.5 nM by double reciprocal plot analysis (Rvb = 8.4 uM)
# [17] = substrate: Cc1cc(-c2cnn3c(NCC4CCOCC4)nc(Oc4ccccc4)nc23)ccc1C(=O)NC1CC1; conditions: Homo sapiens; remark: listed apart in the source
# Description: Inhibition of TTK (unknown origin) assessed as substrate Km(app) at 1.5 nM by double reciprocal plot analysis (Rvb = 8.4 uM)
Molecule,GI50 [1],IC50 [2],GI50 [3],GI50 [4],also measured
O=C(NC1CC1)c1ccc(-c2cnn3c(NCC4CCOCC4)nc(NC4CCCC4)nc23)cc1,390 nM,10 nM,690 nM,1700 nM,
O=C(N[C@@H](c1ccccn1)C1CC1)c1ccc2[nH]nc(-c3ccc(N4C5CCC4CC(O)C5)cc3)c2c1 (stereo not given in full),,,,,inhibition [5]: 50%
COCCNc1nc(Oc2ccccc2)nc2c(-c3ccc(C(=O)NC4CC4)cc3)cnn12,,14 nM,,,
Cc1cc(-c2cnn3c(NCC4CCOCC4)nc(NC4CCCC4)nc23)ccc1NC(=O)C1CC1,,2000 nM,,,
O=C(NC1CC1)c1ccc(-c2cnn3c(NCCN4CCOCC4)nc(Oc4ccccc4)nc23)cc1,880 nM,24 nM,960 nM,410 nM,
Cc1cc(-c2cnn3c(NCC4CCOCC4)nc(Nc4ccccc4)nc23)ccc1C(=O)NC1CC1,690 nM,11 nM,1200 nM,1700 nM,
O=C(NC1CC1)c1ccc(-c2cnn3c(NCC4CCOCC4)nc(Oc4ccccc4)nc23)cc1,200 nM,4.9 nM,350 nM,910 nM,
CN(c1nc(NCC2CCOCC2)n2ncc(-c3ccc(C(=O)NC4CC4)c(F)c3)c2n1)C1CCCCC1,,15 nM,,,
O=C(NC1CC1)c1ccc(-c2cnn3c(NCC4CCOCC4)nc(NC4CCCC4)nc23)cc1F,850 nM,7 nM,1400 nM,1700 nM,
Cc1cc(-c2cnn3c(NCCN4CCOCC4)nc(Oc4cccc(F)c4F)nc23)ccc1C(=O)NC1CC1,14 nM,2.2 nM,40 nM,170 nM,GI50 [6]: 17 nM; GI50 [7]: 150 nM; GI50 [8]: 21 nM
O=C(NC1CC1)c1ccc(-c2cnn3c(NCC4CCOCC4)nc(Oc4ccccc4)nc23)cc1Cl,160 nM,1.7 nM,230 nM,400 nM,
Cc1cc(-c2cnn3c(NCC4CCOCC4)nc(NC4CCOCC4)nc23)ccc1C(=O)NC1CC1,280 nM,9 nM,540 nM,780 nM,
Cc1cc(-c2cnn3c(NCC4CCOCC4)nc(Oc4cccc(F)c4F)nc23)ccc1C(=O)NC1CC1,9 nM,0.4 nM,12 nM,37 nM,Cmax [9]: 1600 ng/mL; half-life [10]: 28 min; half-life [11]: > 60 min; half-life [12]: 40 min; IC50 [13]: > 20000 nM; AUC [14]: 4000 ng·h/mL
Cc1cc(-c2cnn3c(NCC4CCOCC4)nc(NC4CCCC4)nc23)ccc1C(=O)NC1CC1,130 nM,,170 nM,480 nM,half-life [10]: 14 min; half-life [11]: > 60 min; half-life [12]: 11 min; IC50 [13]: 19000 nM; GI50 [6]: 53 nM; GI50 [7]: 320 nM; GI50 [8]: 84 nM
CC(=O)Nc1cccc(Oc2nc(NCC3CCOCC3)n3ncc(-c4ccc(C(=O)NC5CC5)c(C)c4)c3n2)c1,1300 nM,8.4 nM,1600 nM,1200 nM,
O=C(NC1CC1)c1ccc(-c2cnn3c(NCC4CCOCC4)nc(N4CCOCC4)nc23)cc1Cl,440 nM,32 nM,450 nM,70 nM,
CC(C)NC(=O)c1ccc(-c2cnn3c(NCC4CCOCC4)nc(OC4CCCC4)nc23)cc1,,230 nM,,,
Cc1cc(-c2cnn3c(NCC4CCOCC4)nc(NC4CCCCC4)nc23)ccc1C(=O)NC1CC1,170 nM,2.6 nM,270 nM,470 nM,
CC(C)C(=O)Nc1ccc(-c2cnn3c(NCC4CCOCC4)nc(OC4CCCC4)nc23)cc1,,1700 nM,,,
Cc1cc(-c2cnn3c(NCC4CCOCC4)nc(OC4CCCC4)nc23)ccc1C(=O)NC1CC1,160 nM,2.3 nM,230 nM,590 nM,
"Dual specificity protein kinase TTK (Homo sapiens), P33981 (protein) MESEDLSGRELTIDSIMNKVRDIKNKFKNEDLTDELSLNKISADTTDNSGTVNQIMMMANNPEDWLSLLLKLEKNSVPLSDALLNKLIGRYSQAIEALPPDKYGQNESFARIQVRFAELKAIQEPDDARDYFQMARANCKKFAFVHISFAQFELSQGNVKKSKQLLQKAVERGAVPLEMLEIALRNLNLQKKQLLSEEEKKNLSASTVLTAQESFSGSLGHLQNRNNSCDSRGQTTKARFLYGENMPPQDAEIGYRNSLRQTNKTKQSCPFGRVPVNLLNSPDCDVKTDDSVVPCFMKRQTSRSECRDLVVPGSKPSGNDSCELRNLKSVQNSHFKEPLVSDEKSSELIITDSITLKNKTESSLLAKLEETKEYQEPEVPESNQKQWQSKRKSECINQNPAASSNHWQIPELARKVNTEQKHTTFEQPVFSVSKQSPPISTSKWFDPKSICKTPSSNTLDDYMSCFRTPVVKNDFPPACQLSTPYGQPACFQQQQHQILATPLQNLQVLASSSANECISVKGRIYSILKQIGSGGSSKVFQVLNEKKQIYAIKYVNLEEADNQTLDSYRNEIAYLNKLQQHSDKIIRLYDYEITDQYIYMVMECGNIDLNSWLKKKKSIDPWERKSYWKNMLEAVHTIHQHGIVHSDLKPANFLIVDGMLKLIDFGIANQMQPDTTSVVKDSQVGTVNYMPPEAIKDMSSSRENGKSKSKISPKSDVWSLGCILYYMTYGKTPFQQIINQISKLHAIIDPNHEIEFPDIPEKDLQDVLKCCLKRDPKQRISIPELLAHPYVQIQTHPVNQMAKGTTEEMKYVLGQLVGLNSPNSILKAAKTLYEHYSGGESHNSSSSKTFEKKRGKK",,,,,Km [15]: 63.4 µM; Km [16]: 39 µM; Km [17]: 17.4 µM
